The results in this text go back to ChEMBL document CHEMBL1150894, “Three new manzamine congeners from amphimedon sponge” (J Nat Prod, 1998).

In general, IC50 refers to the concentration needed to halve the response being measured. High values mean weaker potency, low ones greater potency. Usually MIC stands for the lowest concentration that inhibits growth of the organism.

In one experiment the test system is L1210. As to the kind of experiment: Cytotoxicity against mouse L1210 cells. The format is functional, cell-based.
The test system of a further experiment is Micrococcus luteus. Put plainly: Antibacterial activity against Sarcina lutea. It counts as functional.
The next experiment concerns Corynebacterium xerosis. As to the kind of experiment: Antibacterial activity against Corynebacterium xerosis. The format is functional.

Values after ≈ are worked out from the molar mass of the structure shown.

Regarding `O[C@]12C=C(C3=NCCc4c3[nH]c3ccccc43)[C@@H]3CCN(CC/C=C\CCCC1)C[C@@]31CC/C=C\CCCCN[C@H]12`, the IC50 with L1210 is 0.5 µg/mL (≈ 0.904 µM). For the same molecule, the minimum inhibitory concentration (MIC) against Micrococcus luteus and in the experiment with Corynebacterium xerosis was 12.5 µg/mL (≈ 22.6 µM) each time.
With `O[C@]12C=C(c3nccc4c3[nH]c3ccccc34)[C@@H]3CCN(CCCC/C=C\CC1)C[C@@]31C[C@@H]3/C=C\CCCCN3[C@H]12` [MANZAMINE A], the IC50 in the experiment on L1210 stood at 1.4 µg/mL (≈ 2.55 µM). Further, the results for the MIC against Micrococcus luteus and in the experiment with Corynebacterium xerosis were 2.3 µg/mL (≈ 4.19 µM) and 5.7 µg/mL (≈ 10.4 µM), respectively.
